Results reported in patent publication US20220396565A1 (Hoffmann-La Roche Inc., priority 2020, published 2022).
Counter-ions that a name gives are not always drawn.

These compounds were tested on Acinetobacter baumannii ATCC17961 (assay: Antimicrobial susceptibility testing: 90% growth inhibitory concentration (IC90) determination, Iso-Sensitest broth). Details: Acinetobacter baumannii, ATCC17961, 90% growth inhibitory concentration, Acinetobacter baumannii ATCC17961, Iso-Sensitest broth; read-out: ATCC 17961 IC90.
Type: cell-based
Method: The in vitro antimicrobial activity of the compounds was determined according to the following procedure:
The assay used a 10-points Iso-Sensitest broth medium to measure quantitatively the in vitro activity of the compounds against Acinetobacter baumannii ATCC17978 or ATCC17961.
Stock compounds in DMSO were serially twofold diluted (e.g. range from 10 to 0.02 μM final concentration) in 384 wells microtiter plates and inoculated with 49 μl the bacterial suspension in Iso-Sensitest medium to have a final cell concentration of ˜5×10^(5) CFU/ml in a final volume/well of 50 ul/well. Microtiter plates were incubated at 35±2° C.
Bacterial cell growth was determined with the measurement of optical density at k=600 nm each 20 minutes over a time course of 16 h. Growth inhibition was calculated during the logarithmic growth of the bacterial cells with determination of the concentration inhibiting 50% (IC50) and 90% (IC90) of the growth.
Table 1 provides the 90% growth inhibitory concentrations (IC90) in micromoles per liter of the compounds of present invention obtained against the strain Acinetobacter baumannii ATCC17978 or ATCC17961.

Compared with `COc1ccc(-c2cnc(C(=O)Nc3ccc(C(=O)N4CCC(N)CC4)c(Cl)c3)n2C)c(F)c1F` [Example 13, N-[4-(4-Aminopiperidine-1-carbonyl)-3-chloro-phenyl]-5-(2,3-difluoro-4-methoxy-phenyl)-1-methyl-imidazole-2-carboxamide formate], `COc1ccc(-c2cnc(C(=O)Nc3ccc(C(=O)N4CCC(OCCN)CC4)c(Cl)c3)n2C)c(F)c1F` [Example 22, N-[4-[4-(2-aminoethoxy)piperidine-1-carbonyl]-3-chloro-phenyl]-5-(2,3-difluoro-4-methoxy-phenyl)-1-methyl-imidazole-2-carboxamide formate] is 2.8-fold lower in IC90: 110 nM for the first, 40 nM for the second.

Compared with `Cn1c(-c2ccc(OCC#N)c(F)c2F)cnc1C(=O)Nc1ccc(C(=O)N2CCNCC2)c(Cl)c1` [Example 14, N-[3-chloro-4-(piperazine-1-carbonyl)phenyl]-5-[4-(cyanomethoxy)-2,3-difluoro-phenyl]-1-methyl-imidazole-2-carboxamide], `Cn1c(-c2ccc(OCC#N)c(F)c2F)cnc1C(=O)Nc1ccc(C(=O)N2CCN(CCN)CC2)c(Cl)c1` [Example 19, N-[4-[4-(2-aminoethyl)piperazine-1-carbonyl]-3-chloro-phenyl]-5-[4-(cyanomethoxy)-2,3-difluoro-phenyl]-1-methyl-imidazole-2-carboxamide trifluoroacetate] is 2.2-fold lower in IC90: 130 nM for the first, 60 nM for the second.

`COc1ccc(-c2cnc(C(=O)Nc3ccc(C(=O)N4CC(OCCN)C4)c(Cl)c3)n2C)c(F)c1F` [Example 18, N-[4-[3-(2-aminoethoxy)azetidine-1-carbonyl]-3-chloro-phenyl]-5-(2,3-difluoro-4-methoxy-phenyl)-1-methyl-imidazole-2-carboxamide formate] and `COc1ccc(-c2cnc(C(=O)Nc3ccc(C(=O)N4CCC(OCC5CNC5)CC4)c(Cl)c3)n2C)c(F)c1F` [Example 23, N-[4-[4-(azetidin-3-ylmethoxy)piperidine-1-carbonyl]-3-chloro-phenyl]-5-(2,3-difluoro-4-methoxy-phenyl)-1-methyl-imidazole-2-carboxamide formate] are within 1.5-fold of each other in IC90: 70 nM for the first, 60 nM for the second.

Going from `COc1ccc(-c2cnc(C(=O)Nc3ccc(C(=O)N4CCC(S(=O)(=O)N5CCNCC5)CC4)c(Cl)c3)n2C)c(F)c1F` [Example 21, N-(3-chloro-4-(4-(piperazin-1-ylsulfonyl)piperidine-1-carbonyl)phenyl)-5-(2,3-difluoro-4-methoxyphenyl)-1-methyl-1H-imidazole-2-carboxamide formate] to `COc1ccc(-c2cnc(C(=O)Nc3ccc(C(=O)N4CCC(C(=O)NC5CCNCC5)CC4)c(Cl)c3)n2C)c(F)c1F` [Example 38, 1-[2-chloro-4-[[5-(2,3-difluoro-4-methoxy-phenyl)-1-methyl-imidazole-2-carbonyl]amino]benzoyl]-N-(4-piperidyl)piperidine-4-carboxamide formate], the IC90 falls from 100 nM to 60 nM (1.7-fold).

`Cn1c(-c2ccc(OCF)c(F)c2F)cnc1C(=O)Nc1ccc(C(=O)N2CCN(C(=O)C3CCN(CC(N)=O)CC3)CC2)c(Cl)c1` [Example 24, N-(4-(4-(1-(2-amino-2-oxoethyl)piperidine-4-carbonyl)piperazine-1-carbonyl)-3-chlorophenyl)-5-(2,3-difluoro-4-(fluoromethoxy)phenyl)-1-methyl-1H-imidazole-2-carboxamide] and `COc1ccc(-c2cnc(C(=O)Nc3ccc(C(=O)N4CCC(C(=O)N5CCC(N)CC5)CC4)c(Cl)c3)n2C)c(F)c1F` [Example 39, N-[4-[4-(4-aminopiperidine-1-carbonyl)piperidine-1-carbonyl]-3-chloro-phenyl]-5-(2,3-difluoro-4-methoxy-phenyl)-1-methyl-imidazole-2-carboxamide formate] are the same in IC90: 70 nM for the first, 70 nM for the second.

First: Cn1c(-c2ccc(OCF)cc2F)cnc1C(=O)Nc1ccc(C(=O)N2CCN(C(=O)N3CC[C@@H](N)C3)CC2)c(Cl)c1 [Example 26, (R)-N-(4-(4-(3-aminopyrrolidine-1-carbonyl)piperazine-1-carbonyl)-3-chlorophenyl)-5-(2-fluoro-4-(fluoromethoxy)phenyl)-1-methyl-1H-imidazole-2-carboxamide formate]
Second: COc1ccc(-c2cnc(C(=O)Nc3ccc(C(=O)N4CCC(C(=O)N5CC(N)C5)CC4)c(Cl)c3)n2C)c(F)c1F [Example 33, N-[4-[4-(3-aminoazetidine-1-carbonyl)piperidine-1-carbonyl]-3-chloro-phenyl]-5-(2,3-difluoro-4-methoxy-phenyl)-1-methyl-imidazole-2-carboxamide trifluoroacetate]
The IC90 of the first is 3-fold lower: 30 nM for the first, 90 nM for the second.

`COc1ccc(-c2cnc(C(=O)Nc3ccc(C(=O)N4CCC(C(=O)N5CCN[C@H](CO)C5)CC4)c(Cl)c3)n2C)c(F)c1F` [Example 29, N-[3-chloro-4-[4-[(3S)-3-(hydroxymethyl)piperazine-1-carbonyl]piperidine-1-carbonyl]phenyl]-5-(2,3-difluoro-4-methoxy-phenyl)-1-methyl-imidazole-2-carboxamide] and `COc1ccc(-c2cnc(C(=O)Nc3ccc(C(=O)N4CCC(C(=O)N5CCN[C@@H](CO)C5)CC4)c(Cl)c3)n2C)c(F)c1F` [Example 30, N-[3-chloro-4-[4-[(3R)-3-(hydroxymethyl)piperazine-1-carbonyl]piperidine-1-carbonyl]phenyl]-5-(2,3-difluoro-4-methoxy-phenyl)-1-methyl-imidazole-2-carboxamide] are within 1.5-fold of each other in IC90: 190 nM for the first, 170 nM for the second.

`COc1ccc(-c2cnc(C(=O)Nc3ccc(C(=O)N4CCC(C(=O)NCC5CNC5)CC4)c(Cl)c3)n2C)c(F)c1F` [Example 31, N-(azetidin-3-ylmethyl)-1-[2-chloro-4-[[5-(2,3-difluoro-4-methoxy-phenyl)-1-methyl-imidazole-2-carbonyl]amino]benzoyl] piperidine-4-carboxamide formate] and `COc1ccc(-c2cnc(C(=O)Nc3ccc(C(=O)N4CCC(C(=O)NCC5CCNCC5)CC4)c(Cl)c3)n2C)c(F)c1F` [Example 35, 1-[2-chloro-4-[[5-(2,3-difluoro-4-methoxy-phenyl)-1-methyl-imidazole-2-carbonyl]amino]benzoyl]-N-(4-piperidylmethyl)piperidine-4-carboxamide formate] are within 1.5-fold of each other in IC90: 70 nM for the first, 60 nM for the second.

Going from `COc1ccc(-c2cnc(C(=O)Nc3ccc(C(=O)N4CCC(C(=O)NC[C@H](C)N)CC4)c(Cl)c3)n2C)c(F)c1F` [Example 32, N-[(2S)-2-aminopropyl]-1-[2-chloro-4-[[5-(2,3-difluoro-4-methoxy-phenyl)-1-methyl-imidazole-2-carbonyl]amino]benzoyl] piperidine-4-carboxamide] to `COc1ccc(-c2cnc(C(=O)Nc3ccc(C(=O)N4CCC(C(=O)NCc5ccncc5)CC4)c(Cl)c3)n2C)c(F)c1F` [Example 36, 1-[2-chloro-4-[[5-(2,3-difluoro-4-methoxy-phenyl)-1-methyl-imidazole-2-carbonyl]amino]benzoyl]-N-(4-pyridylmethyl)piperidine-4-carboxamide], the IC90 rises from 80 nM to 130 nM (1.6-fold).

In the case of `COc1ccc(-c2cnc(C(=O)Nc3ccc(C(=O)N4CCC(C(=O)N5CC(CN)C5)CC4)c(Cl)c3)n2C)c(F)c1F` [Example 34, N-[4-[4-[3-(aminomethyl)azetidine-1-carbonyl]piperidine-1-carbonyl]-3-chloro-phenyl]-5-(2,3-difluoro-4-methoxy-phenyl)-1-methyl-imidazole-2-carboxamidetrifluoroacetate], the IC90 is reported as 70 nM.

Same assay, conditions: Acinetobacter baumannii, ATCC17961, read-out: ATCC 17961 IC90

`Cn1c(-c2ccc(OCC#N)c(F)c2F)cnc1C(=O)Nc1ccc(C(=O)N2CCN(C(=O)N[C@@H]3CNC[C@H]3O)CC2)c(Cl)c1` [Example 7] and `COc1ccc(-c2cnc(C(=O)Nc3ccc(C(=O)N4CCC(NC(=O)CC5CCNC5)CC4)c(Cl)c3)n2C)c(F)c1F` (stereo not shown) [Example 11, N-[3-Chloro-4-[4-[(2-pyrrolidin-3-ylacetyl)amino]piperidine-1-carbonyl]phenyl]-5-(2,3-difluoro-4-methoxy-phenyl)-1-methyl-imidazole-2-carboxamide formate] are the same in IC90: 70 nM for the first, 70 nM for the second.

First: COc1ccc(-c2cnc(C(=O)Nc3ccc(C(=O)N4CCC(CCN)CC4)c(Cl)c3)n2C)c(F)c1F [Example 17, N-[4-[4-(2-Aminoethyl)piperidine-1-carbonyl]-3-chloro-phenyl]-5-(2,3-difluoro-4-methoxy-phenyl)-1-methyl-imidazole-2-carboxamide formate]
Second: COc1ccc(-c2cnc(C(=O)Nc3ccc(C(=O)N4CCC(C(=O)N[C@@H](C)CN)CC4)c(Cl)c3)n2C)c(F)c1F [Example 28, N-[(1S)-2-Amino-1-methyl-ethyl]-1-[2-chloro-4-[[5-(2,3-difluoro-4-methoxy-phenyl)-1-methyl-imidazole-2-carbonyl]amino]benzoyl]piperidine-4-carboxamide trifluoroacetate]
The IC90 of the first is 5.7-fold lower: 30 nM for the first, 170 nM for the second.

Compared with `Cn1c(-c2ccc(OCF)cc2F)cnc1C(=O)Nc1ccc(C(=O)N2CCN(C(=O)C3CCNCC3)CC2)c(Cl)c1` [Example 25, N-(3-chloro-4-(4-(piperidine-4-carbonyl)piperazine-l-carbonyl)phenyl)-5-(2-fluoro-4-(fluoromethoxy)phenyl)-1-methyl-1H-imidazole-2-carboxamide formate], `COc1ccc(-c2cnc(C(=O)Nc3ccc(C(=O)N4CCC(C(=O)N5C[C@H](N)[C@@H](F)C5)CC4)c(Cl)c3)n2C)c(F)c1F` [Example 37, N-[4-[4-[(3S,4S)-3-amino-4-fluoro-pyrrolidine-1-carbonyl]piperidine-1-carbonyl]-3-chloro-phenyl]-5-(2,3-difluoro-4-methoxy-phenyl)-1-methyl-imidazole-2-carboxamide trifluoroacetate] is 2.8-fold higher in IC90: 60 nM for the first, 170 nM for the second.
